# Assays:
# [1] = tested on: mild to moderate AD patients (brain volume: whole brain, hippocampus); assay: Test Example 2: Early Phase II placebo-controlled trial, brain volume change by volumetric MRI; type: in vivo, human
# From the text: Multicenter Randomized Double-Blind Early Phase II Placebo-Controlled Trial for Assessing Effectiveness and Safety of Compound A in Mild to Moderate AD Patients
# Patients were screened in a period from 28 days before treatment assignment to the assignment based on the following selection criteria. Patients matched (373 patients) were randomly divided into the following 2 groups and the trial was started.
# Patients who were probable AD and over or 50 years old or older and 90 years old or younger at the time of obtaining consent of screening.
# Patients with an MMSE score of 15 to 24 at the time of screening
# (§1) Patients with a Modified Hachinski Ischemia Scale score of 4 or less
# Patients who have been treated with a donepezil hydrochloride for at least 6 months before the baseline and with a stable dose thereof for 3 months before the baseline.
# Patients whose brain MRI or CT results match AD at the time of screening Organization of groups:
# (1) Active drug group: 224 mg of a test compound (160 mg in terms of Compound A) was orally administered once a day for 52 weeks (176 patients)
# (2) Placebo group: placebo was orally administered once a day for 52 weeks (178 patients) Method of assessment:
# (§2) Brain volume of subjects was measured by vMRI scan at the screening and after 52 weeks, and the volume change of the whole brain and the hippocampus of the subjects were quantified to assess brain atrophy based on the change from the screening.
# The mean amount of volume change of the whole brain and the hippocampus after 52 weeks from the baseline, standard deviation and the difference from the placebo group were calculated.
# [2] = tested on: mild to moderate AD patients (brain volume: whole brain, hippocampus, 101 areas); assay: Test Example 1: Phase II placebo-controlled trial, brain volume change by volumetric MRI; type: in vivo, human; conditions: for Change in brain volume, Hippocampus, Least square means / Change in brain volume, Whole brain, Least square means / Change in brain volume, Hippocampus, Difference from placebo group / Change in brain volume, Whole brain, Difference from placebo group: vMRI at week 52 from baseline
# From the text: Multicenter Randomized Double-Blind Phase II Placebo-Controlled Trial for Assessing Effectiveness and Safety of Compound A in Mild to Moderate AD Patients Subject (selection criteria): Patients were screened in a period from 42 days before treatment assignment to the assignment based on the following selection criteria.
# Patients who were probable AD and are 55 years old or older and 85 years old or younger at the time of obtaining consent of screening.
# Patients with an MMSE score of 12 to 22 at the time of screening
# as §1
# Patients who have been treated with a donepezil hydrochloride or rivastigmine transdermal system for at least 4 months before the baseline and with a stable dose thereof for 3 months before the baseline.
# In the case of patients who have received memantine in addition to being treated with a donepezil hydrochloride or rivastigmine transdermal system, patients who have been treated with memantine for at least 4 months before the baseline and with a stable dose thereof for 3 months before the baseline.
# Patients whose brain MRI or CT results match AD at the time of screening
# Organization of groups: Patients matched (484 patients) were randomly divided into the following 3 groups and the trial was started.
# (1) High dose group: 224 mg of a test compound (160 mg in terms of Compound A) was orally administered once a day for 4 weeks and then 448 mg of a test compound (320 mg in terms of Compound A) was orally administered once a day for 48 weeks (158 patients)
# (2) Low dose group: 224 mg of a test compound (160 mg in terms of Compound A) was orally administered once a day for 52 weeks (166 patients)
# (3) Placebo group: placebo was orally administered once a day for 52 weeks (158 patients)
# as §2
# Furthermore, volume change of the whole brain and 101 areas (obtained by dividing the areas existing in both the left brain and the right brain of the Brodmann areas (1 to 52) into 101 areas) in each subject was quantified to assess brain atrophy based on the change from the screening.
# Changes in the volume of the whole brain and the hippocampus after 52 weeks from the baseline were compared between the high dose group and the placebo group, and between the low dose group and the placebo group based on Mixed-effect Models. For models, the treatment groups were included as a fixed effect, age, baseline of the respective brain volumes (the whole brain or the hippocampus), baseline of MMSE and ApoE4 genotype (positive/negative) were included as covariates, and trial sites were included as a random effect.
# Furthermore, changes in the respective volumes of the whole brain and the 101 areas after 52 weeks from the baseline were compared between the high dose group and the placebo group, and between the low dose group and the placebo group.
# [3] = Compound A group vs placebo group, week 52 from baseline
# [4] = Low dose (active drug) group, 160 mg in terms of Compound A oral once a day, 52 weeks, vMRI at week 52 from baseline
# [5] = Low dose (active drug) group, vMRI at week 52 from baseline
# [6] = High dose group (160 mg for 4 weeks then 320 mg in terms of Compound A, oral once a day, 48 weeks)
# [7] = Low dose group (160 mg in terms of Compound A, oral once a day, 52 weeks)
structure (smiles),measurement,setting,value
"OC1CN(CCCOCCc2ccc3sccc3c2)C1 [Compound A, 1-(3-(2-(1-benzothiophen-5-yl)ethoxy)propyl)azetidin-3-ol]",Change in the volume of the whole brain and the hippocampus versus placebo group (in words),[1]; [3],volume reduction tended to be smaller
same,"Change in brain volume, Hippocampus, Mean change",[1]; [4],-0.21 mL
same,"Change in brain volume, Whole brain, Mean change",[1]; [4],-3.83 mL
same,"Change in brain volume, Hippocampus, Difference from placebo group",[1]; [5],0.09 mL
same,"Change in brain volume, Whole brain, Difference from placebo group",[1]; [5],3.41 mL
same,Change in the volume of the whole brain and the hippocampus versus placebo group (in words),[2]; [3],volume reduction tended to be smaller
same,Volume reduction of the whole brain and the hippocampus versus placebo group (in words),"[2]; Compound A high dose group, analysis of whole brain and 101 areas",same tendency as in the low dose group was observed
same,Volume reduction of the whole brain and the hippocampus versus placebo group (in words),"[2]; Compound A low dose group, analysis of whole brain and 101 areas (Nos. 6 and 14 in Table 2)",tended to be suppressed
same,"Change in brain volume, Hippocampus, Least square means",[2]; [6],-0.31 mL
same,"Change in brain volume, Whole brain, Least square means",[2]; [6],-20.05 mL
same,"Change in brain volume, Hippocampus, Difference from placebo group",[2]; High dose group,0.08 mL
same,"Change in brain volume, Whole brain, Difference from placebo group",[2]; High dose group,3.94 mL
same,"Change in brain volume, Hippocampus, Least square means",[2]; [7],-0.27 mL
same,"Change in brain volume, Whole brain, Least square means",[2]; [7],-21.37 mL
same,"Change in brain volume, Hippocampus, Difference from placebo group",[2]; Low dose group,0.12 mL
same,"Change in brain volume, Whole brain, Difference from placebo group",[2]; Low dose group,2.63 mL
same,"Change in brain volume, Mean value, Right-Cerebellum-White-Matter","[2]; Low dose group, week 52 from baseline, whole brain and 101 areas analysis",−0.89

# Reference: patent publication US11951092B2, “Agent for preventing or treating brain atrophy” (FUJIFILM Toyama Chemical Co., Ltd., priority 2017, dated 2024)
